Test systems include A498 renal; HCT-15 colon; CAKI-1 renal; SK-MEL-2 melanoma; T-47D breast; SNB-75 CNS; NCI-H23 lung; SW-620 colon; HCC-2998 colon; IGROV1 ovarian; CCRF-CEM leukemia; LOX IMVI melanoma; NCI-H226 lung.
Assay in all cases: inhibition of tumour cell growth, NCI panel, 48 h

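How tested: cells in 96-well plates exposed to compound for 48 hours at five concentrations. Here, GI50 denotes the concentration required for 50% inhibition of growth. The concentration for full growth arrest is given as TGI.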

For `CCOC(=O)C1=COC(C)(C)CC1=O`, the TGI in the assay on A498 renal, in the assay on HCT-15 colon, with CAKI-1 renal, in the assay with SK-MEL-2 melanoma, with T-47D breast and in the assay with SNB-75 CNS was above 100 µM throughout. Also, the TGI in the assay on NCI-H23 lung and in the assay on SW-620 colon was above 100 µM throughout.

As to `COC(=O)C(=O)c1cc2ccccc2n1S(=O)(=O)c1ccccc1`, the TGI in the assay with A498 renal, in the assay with HCT-15 colon, with CAKI-1 renal, in the assay with SK-MEL-2 melanoma, in the assay on HCC-2998 colon and in the assay with IGROV1 ovarian was above 100 µM in each case. Also, the TGI in the assay on CCRF-CEM leukemia, with T-47D breast, in the assay on SNB-75 CNS, in the assay on NCI-H23 lung, in the assay with LOX IMVI melanoma and in the assay on SW-620 colon was above 100 µM each time.

On to `CC(=O)C1=C(C)N(c2ccc(C)cc2)C2(O)C=CC(=O)C3=C(O)c4ccccc4C(=O)C312` (stereo unspecified), for which the TGI in the assay with A498 renal was 30.8 µM; in the assay with HCT-15 colon, above 100 µM; with CAKI-1 renal, 35.8 µM; with SK-MEL-2 melanoma, 30.3 µM; in the assay on HCC-2998 colon, 42.2 µM; in the assay on IGROV1 ovarian, above 100 µM. For the same compound, the TGI was 64.4 µM with NCI-H226 lung; above 100 µM in the assay with T-47D breast; 49.9 µM in the assay with SNB-75 CNS; 52.5 µM in the assay on NCI-H23 lung; above 100 µM in the assay with LOX IMVI melanoma; above 100 µM in the assay with SW-620 colon.

In the case of `CC1=C(S(=O)c2ccc(C)cc2)CCC2(CCCCO2)O1` (stereo unspecified), the TGI in the assay with A498 renal, in the assay on HCT-15 colon, in the assay on CAKI-1 renal, with SK-MEL-2 melanoma, in the assay on HCC-2998 colon and in the assay on IGROV1 ovarian was above 100 µM throughout. The TGI with NCI-H226 lung, in the assay on T-47D breast, in the assay on SNB-75 CNS, with NCI-H23 lung, in the assay on LOX IMVI melanoma and in the assay on SW-620 colon was above 100 µM in each case.

Turning to `O=C(Nc1ccc(Cl)cc1Cl)c1cc2nc3ccccc3c(=O)n2c2ccccc12`, the TGI with A498 renal, in the assay with HCT-15 colon, in the assay on CAKI-1 renal, in the assay on SK-MEL-2 melanoma, in the assay with HCC-2998 colon and with IGROV1 ovarian was above 10 µM throughout. In addition, the TGI in the assay with CCRF-CEM leukemia, in the assay on T-47D breast, with NCI-H23 lung, in the assay on LOX IMVI melanoma and in the assay with SW-620 colon was above 10 µM in each case.

`CCOC(=O)C(Cc1ccc2c(c1)CCC2)Cc1ccc2c(c1)CCC2`: the TGI in the assay with A498 renal, in the assay on HCT-15 colon, in the assay with CAKI-1 renal, with SK-MEL-2 melanoma, in the assay on HCC-2998 colon and in the assay with IGROV1 ovarian was above 100 µM each time. For the same compound, the TGI was above 100 µM in the assay with CCRF-CEM leukemia; above 100 µM in the assay on T-47D breast; above 100 µM in the assay on SNB-75 CNS; above 100 µM in the assay with NCI-H23 lung; 47.8 µM in the assay with LOX IMVI melanoma; above 100 µM in the assay with SW-620 colon.

`CC12OC3(C(O)C1O)C(C(=O)O[C@H]3CO[Si](C)(C)C(C)(C)C)C2S(=O)(=O)c1ccccc1` (stereo partly specified): the TGI in the assay with A498 renal is above 100 µM; in the assay with HCT-15 colon it was 89.6 µM; in the assay on SK-MEL-2 melanoma, above 100 µM; with IGROV1 ovarian, 97.4 µM; in the assay with NCI-H226 lung, 58.3 µM; in the assay on T-47D breast it was 79.3 µM. For the same compound, the values for the TGI with SNB-75 CNS, with LOX IMVI melanoma and with SW-620 colon were 90.4 µM, 46.8 µM and above 100 µM, respectively.

Take `Oc1ccc(NCc2cc(O)ccc2O)cc1`: the TGI amounted to 60.1 µM in the assay with A498 renal; 36.8 µM with HCT-15 colon; 34.9 µM in the assay on CAKI-1 renal; 36.3 µM in the assay on SK-MEL-2 melanoma; 30.8 µM in the assay with HCC-2998 colon; 34.2 µM in the assay with IGROV1 ovarian. In addition, the TGI in the assay on NCI-H226 lung was 50.4 µM; in the assay on T-47D breast, 52.1 µM; in the assay on SNB-75 CNS it was 33 µM; with NCI-H23 lung, 38.7 µM; in the assay on LOX IMVI melanoma it was 38 µM; in the assay on SW-620 colon it was above 100 µM.

Consider `c1ccc(-c2sc(-c3ccccc3)c3c2C2CCC3C2)cc1`, for which the TGI in the assay with A498 renal was above 100 µM; with HCT-15 colon, above 100 µM; with CAKI-1 renal, above 100 µM; in the assay on SK-MEL-2 melanoma it was 39.5 µM; with IGROV1 ovarian, above 100 µM; with CCRF-CEM leukemia, above 100 µM. In addition, the TGI in the assay on NCI-H226 lung was 83.3 µM; in the assay on T-47D breast it was above 100 µM; in the assay on NCI-H23 lung, above 100 µM; in the assay with LOX IMVI melanoma, above 100 µM; in the assay with SW-620 colon, above 100 µM.

Regarding `CC(=O)O[C@@H]1[C@@H](C)[C@]2(CC(c3ccoc3)OC2O)C2CCC3O[C@]3(C)[C@]2(C)[C@@H]1OC(C)=O` (stereo partly specified), the TGI in the assay on A498 renal was above 100 µM; with HCT-15 colon, above 100 µM; in the assay with CAKI-1 renal, above 100 µM; in the assay on SK-MEL-2 melanoma, above 100 µM; in the assay with IGROV1 ovarian it was above 100 µM; in the assay with CCRF-CEM leukemia it was 61.5 µM. The TGI is 87.9 µM in the assay on NCI-H226 lung; 86.8 µM in the assay on T-47D breast; above 100 µM in the assay on SNB-75 CNS; above 100 µM in the assay with NCI-H23 lung; 44.1 µM in the assay on LOX IMVI melanoma; above 100 µM in the assay on SW-620 colon.

As to `CCCC1=NC(C(F)(F)F)(C(F)(F)F)N=C(N2CCOCC2)O1`, the TGI in the assay on HCT-15 colon, in the assay with CAKI-1 renal, with SK-MEL-2 melanoma, in the assay on HCC-2998 colon, with IGROV1 ovarian and with CCRF-CEM leukemia was above 100 µM throughout. Further, the TGI in the assay with NCI-H226 lung, with T-47D breast, in the assay on SNB-75 CNS, with NCI-H23 lung, in the assay with LOX IMVI melanoma and in the assay with SW-620 colon was above 100 µM each time.

With `O=CN(O)CC(=O)O.[Ni]`, the TGI in the assay with A498 renal, with HCT-15 colon, in the assay on CAKI-1 renal, with HCC-2998 colon, in the assay on IGROV1 ovarian and with CCRF-CEM leukemia was above 100 µM each time. For the same compound, the TGI in the assay on NCI-H226 lung, with T-47D breast, in the assay with SNB-75 CNS, in the assay with NCI-H23 lung, in the assay on LOX IMVI melanoma and in the assay with SW-620 colon was above 100 µM throughout. For the same compound, in the assay with CAKI-1 renal, the GI50 is above 100 µM.

These data come from PubChem BioAssay (NCI).
